Data as given in the supplement of paper PMC8882468.

system: HCI-019 (organoid from a triple-negative breast cancer xenograft); experiment: CTG-3D luminescence at 96 h relative to day-0 seeding control (ratio to day 0); higher = more growth / less cytotoxicity; PDxO 3D drug screen, 96 h, CTG-3D normalised to day-0 seeding control.; conditions: 0.1 µM; days in culture: 131

Row | SMILES | CTG-3D luminescence at 96 h
1 | CN(Cc1cnc2nc(N)nc(N)c2n1)c1ccc(C(=O)N[C@@H](CCC(=O)O)C(=O)O)cc1 [methotrexate] | 2.59
2 | C=CCn1c(=O)c2cnc(Nc3ccc(N4CCN(C)CC4)cc3)nc2n1-c1cccc(C(C)(C)O)n1 [adavosertib] | 2.25
3 | CC(C)(C(=O)NCC(F)(F)C(F)(F)F)C(=O)N[C@@H]1C(=O)Nc2ccccc2-c2ccccc21 | 3.09
4 | C[C@@H]1COCCN1c1cc(C2([S@](C)(=N)=O)CC2)nc(-c2cc[nH]c3nccc2-3)n1 [ceralasertib] | 3.3
5 | CCN1CCN(Cc2ccc(Nc3ncc(F)c(-c4cc(F)c5nc(C)n(C(C)C)c5c4)n3)nc2)CC1 [abemaciclib] | 4.2

same assay, conditions: 0.1 µM; days in culture: 152

Row | SMILES | CTG-3D luminescence at 96 h
6 | COc1cccc2c1C(=O)c1c(O)c3c(c(O)c1C2=O)C[C@@](O)(C(=O)CO)C[C@@H]3O[C@H]1C[C@H](N)[C@H](O)[C@H](C)O1 [doxorubicin] | 1.57
7 | O=C(O)C1(C(=O)O)CCC1.[NH2-].[NH2-].[Pt+2] [carboplatin] | 1.4
8 | NC(=O)Nc1cc(-c2cccc(F)c2)sc1C(=O)N[C@H]1CCCNC1 [AZD7762] | 1.11
9 | Nc1ccn([C@@H]2O[C@H](CO)[C@@H](O)C2(F)F)c(=O)n1 [gemcitabine] | 0.432
10 | CC1(C)CCC(c2ccc(Cl)cc2)=C(CN2CCN(c3ccc(C(=O)NS(=O)(=O)c4ccc(N[C@H](CCN5CCOCC5)CSc5ccccc5)c(S(=O)(=O)C(F)(F)F)c4)cc3)CC2)C1 [navitoclax] | 1.89
11 | CN(Cc1cnc2nc(N)nc(N)c2n1)c1ccc(C(=O)N[C@@H](CCC(=O)O)C(=O)O)cc1 [methotrexate] | 2.1
12 | C=CCn1c(=O)c2cnc(Nc3ccc(N4CCN(C)CC4)cc3)nc2n1-c1cccc(C(C)(C)O)n1 [adavosertib] | 1.42
13 | CC(C)(C(=O)NCC(F)(F)C(F)(F)F)C(=O)N[C@@H]1C(=O)Nc2ccccc2-c2ccccc21 | 1.92
14 | C[C@@H]1COCCN1c1cc(C2([S@](C)(=N)=O)CC2)nc(-c2cc[nH]c3nccc2-3)n1 [ceralasertib] | 2.22
15 | CCN1CCN(Cc2ccc(Nc3ncc(F)c(-c4cc(F)c5nc(C)n(C(C)C)c5c4)n3)nc2)CC1 [abemaciclib] | 2.58

same assay, conditions: 1 µM; days in culture: 110

Row | SMILES | CTG-3D luminescence at 96 h
16 | COc1cccc2c1C(=O)c1c(O)c3c(c(O)c1C2=O)C[C@@](O)(C(=O)CO)C[C@@H]3O[C@H]1C[C@H](N)[C@H](O)[C@H](C)O1 [doxorubicin] | 0.296
17 | O=C(O)C1(C(=O)O)CCC1.[NH2-].[NH2-].[Pt+2] [carboplatin] | 1.29
18 | NC(=O)Nc1cc(-c2cccc(F)c2)sc1C(=O)N[C@H]1CCCNC1 [AZD7762] | 0.333
19 | Nc1ccn([C@@H]2O[C@H](CO)[C@@H](O)C2(F)F)c(=O)n1 [gemcitabine] | 0.241
20 | CC1(C)CCC(c2ccc(Cl)cc2)=C(CN2CCN(c3ccc(C(=O)NS(=O)(=O)c4ccc(N[C@H](CCN5CCOCC5)CSc5ccccc5)c(S(=O)(=O)C(F)(F)F)c4)cc3)CC2)C1 [navitoclax] | 0.469
21 | CN(Cc1cnc2nc(N)nc(N)c2n1)c1ccc(C(=O)N[C@@H](CCC(=O)O)C(=O)O)cc1 [methotrexate] | 1.17
22 | C=CCn1c(=O)c2cnc(Nc3ccc(N4CCN(C)CC4)cc3)nc2n1-c1cccc(C(C)(C)O)n1 [adavosertib] | 0.377
23 | CC(C)(C(=O)NCC(F)(F)C(F)(F)F)C(=O)N[C@@H]1C(=O)Nc2ccccc2-c2ccccc21 | 1.47
24 | C[C@@H]1COCCN1c1cc(C2([S@](C)(=N)=O)CC2)nc(-c2cc[nH]c3nccc2-3)n1 [ceralasertib] | 0.748
25 | CCN1CCN(Cc2ccc(Nc3ncc(F)c(-c4cc(F)c5nc(C)n(C(C)C)c5c4)n3)nc2)CC1 [abemaciclib] | 1.42

same assay, conditions: 1 µM; days in culture: 131

Row | SMILES | CTG-3D luminescence at 96 h
26 | COc1cccc2c1C(=O)c1c(O)c3c(c(O)c1C2=O)C[C@@](O)(C(=O)CO)C[C@@H]3O[C@H]1C[C@H](N)[C@H](O)[C@H](C)O1 [doxorubicin] | 0.314
27 | O=C(O)C1(C(=O)O)CCC1.[NH2-].[NH2-].[Pt+2] [carboplatin] | 2.12
28 | NC(=O)Nc1cc(-c2cccc(F)c2)sc1C(=O)N[C@H]1CCCNC1 [AZD7762] | 0.541
29 | Nc1ccn([C@@H]2O[C@H](CO)[C@@H](O)C2(F)F)c(=O)n1 [gemcitabine] | 0.344
30 | CC1(C)CCC(c2ccc(Cl)cc2)=C(CN2CCN(c3ccc(C(=O)NS(=O)(=O)c4ccc(N[C@H](CCN5CCOCC5)CSc5ccccc5)c(S(=O)(=O)C(F)(F)F)c4)cc3)CC2)C1 [navitoclax] | 1.25
31 | CN(Cc1cnc2nc(N)nc(N)c2n1)c1ccc(C(=O)N[C@@H](CCC(=O)O)C(=O)O)cc1 [methotrexate] | 2.04
32 | C=CCn1c(=O)c2cnc(Nc3ccc(N4CCN(C)CC4)cc3)nc2n1-c1cccc(C(C)(C)O)n1 [adavosertib] | 0.386
33 | CC(C)(C(=O)NCC(F)(F)C(F)(F)F)C(=O)N[C@@H]1C(=O)Nc2ccccc2-c2ccccc21 | 2.31
34 | C[C@@H]1COCCN1c1cc(C2([S@](C)(=N)=O)CC2)nc(-c2cc[nH]c3nccc2-3)n1 [ceralasertib] | 1.98
35 | CCN1CCN(Cc2ccc(Nc3ncc(F)c(-c4cc(F)c5nc(C)n(C(C)C)c5c4)n3)nc2)CC1 [abemaciclib] | 2.75

same assay, conditions: 1 µM; days in culture: 152

Row | SMILES | CTG-3D luminescence at 96 h
36 | COc1cccc2c1C(=O)c1c(O)c3c(c(O)c1C2=O)C[C@@](O)(C(=O)CO)C[C@@H]3O[C@H]1C[C@H](N)[C@H](O)[C@H](C)O1 [doxorubicin] | 0.409
37 | O=C(O)C1(C(=O)O)CCC1.[NH2-].[NH2-].[Pt+2] [carboplatin] | 1.99
